In patent publication US6136801A, “Therapeutic agent with quantitative consumption marker” (U. D. Testing, Inc., priority 1998, dated 2000):

How the values were obtained:
[1] = Normalized urine compliance marker (diazepam) concentration in patients, FPIA, normalized to urine SG 1.030 and 154 lbs body weight; conditions: diazepam 2 mg p.o. q12h
[2] = Renal excretion rates as a function of urine volume production rate; format: in vivo, human
Experimental: This constancy has now been experimentally verified by examining the renal excretion rates of methadone, benzodiazepines, other drugs and creatinine and other endogenous metabolites as a function of urine volume production rate. For example, sequential, complete and timed (1-8 hours holding periods) aliquots of urine for 12 compliant control subjects were collected over 24 to 72 hour periods. For each urine aliquot, urine volume production rate (ml/min), specific gravity and creatinine concentration (mg/dl) (as the tested substance) were determined.

Q: For CN1C(=O)CN=C(c2ccccc2)c2cc(Cl)ccc21 [diazepam], which “MEAN NU FOR […]” value ([1]; Experiment #1, patient P-1, methadone 30 mg p.o. q12h) is on record?
A: The value was 500 (SD 90, CV 18%).

Q: And the “MEAN NU FOR […]” value ([1]; Experiment #1, patient P-3, methadone 30 mg p.o. q12h)?
A: Its value is 499 (SD 73, CV 15%).

Q: For CCC(=O)C(CC(C)N(C)C)(c1ccccc1)c1ccccc1 (stereo not drawn) [methadone], which “renal excretion rates during a typical day” value [2] is on record?
A: The value was “relatively constant”.
